# Laboratory results: ChEMBL document CHEMBL2331312, “Dimerized linear mimics of a natural cyclopeptide (TMC-95A) are potent noncovalent inhibitors of the eukaryotic 20S proteasome” (J Med Chem, 2013)
# Active and inactive are the calls of the source. The rule behind the calls is not given here.
# Legend:
# [1] = target: Cathepsin B (Homo sapiens) (UniProt P07858); test: Inhibition of human cathepsin B using Suc-LLVY-AMC as substrate assessed as remaining enzyme activity at 20 uM incubated for 15 mins prior to substrate addition measured for 30 mins by fluorescence assay
# [2] = target: T1, Proteasome Macropain subunit MB1 (Homo sapiens, UniProt P28074)
# T1 sequence (P28074 whole entry): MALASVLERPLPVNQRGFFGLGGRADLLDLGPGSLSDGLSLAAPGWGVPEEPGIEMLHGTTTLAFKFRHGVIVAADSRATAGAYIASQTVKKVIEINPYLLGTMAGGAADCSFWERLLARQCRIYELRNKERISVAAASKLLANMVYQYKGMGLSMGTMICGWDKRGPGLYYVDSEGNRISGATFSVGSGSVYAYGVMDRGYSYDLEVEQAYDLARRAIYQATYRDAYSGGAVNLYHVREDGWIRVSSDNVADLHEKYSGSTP
# Description: Competitive inhibition of chymotrypsin-like activity of human constitutive 20s proteasome beta-5 subunit using Suc-LLVY-AMC as substrate assessed as inhibition constant for dissociation of enzyme-inhibitor complex incubated for 15 mins prior to substrate addition measured after 45 mins by fluorescence assay
# [3] = target: T1, Proteasome Macropain subunit MB1; remark: listed apart in the source
# Description: (§2) Inhibition of chymotrypsin-like activity of human constitutive 20s proteasome beta-5 subunit using Suc-LLVY-AMC as substrate assessed as remaining activity incubated for 15 mins prior to substrate addition measured after 45 mins by fluorescence assay
# [4] = target: T2, Calpain-1 catalytic subunit (Homo sapiens) (UniProt P07384); test: Inhibition of human calpain 1 using Suc-LLVY-AMC as substrate assessed as remaining enzyme activity at 20 uM incubated for 5 mins prior to substrate addition measured for 30 mins by fluorescence assay
# T2 sequence (whole entry): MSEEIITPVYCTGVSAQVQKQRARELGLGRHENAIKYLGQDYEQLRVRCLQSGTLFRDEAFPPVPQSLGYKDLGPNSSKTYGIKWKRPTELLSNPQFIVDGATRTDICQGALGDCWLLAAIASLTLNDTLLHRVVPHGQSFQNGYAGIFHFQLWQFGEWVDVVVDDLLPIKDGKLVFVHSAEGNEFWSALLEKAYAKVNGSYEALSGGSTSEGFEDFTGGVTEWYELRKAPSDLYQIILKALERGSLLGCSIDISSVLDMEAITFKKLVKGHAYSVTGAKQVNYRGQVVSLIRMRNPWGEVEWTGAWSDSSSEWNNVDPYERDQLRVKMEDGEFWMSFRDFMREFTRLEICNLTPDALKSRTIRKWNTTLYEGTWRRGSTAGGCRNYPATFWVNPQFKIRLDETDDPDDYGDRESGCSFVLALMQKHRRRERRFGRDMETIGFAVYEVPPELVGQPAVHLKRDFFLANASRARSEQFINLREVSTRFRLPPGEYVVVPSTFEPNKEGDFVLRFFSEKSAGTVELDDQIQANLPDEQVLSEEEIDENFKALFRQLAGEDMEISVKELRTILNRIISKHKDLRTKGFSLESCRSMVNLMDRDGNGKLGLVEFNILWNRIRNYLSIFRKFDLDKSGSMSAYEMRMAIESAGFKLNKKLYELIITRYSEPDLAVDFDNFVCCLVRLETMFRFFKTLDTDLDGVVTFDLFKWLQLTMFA
# [5] = target: T1, Proteasome Macropain subunit MB1; remark: listed apart in the source
# Description: as §2
# [6] = target: T3, Proteasome component C5 (Homo sapiens, UniProt P20618)
# T3 sequence (P20618 whole entry): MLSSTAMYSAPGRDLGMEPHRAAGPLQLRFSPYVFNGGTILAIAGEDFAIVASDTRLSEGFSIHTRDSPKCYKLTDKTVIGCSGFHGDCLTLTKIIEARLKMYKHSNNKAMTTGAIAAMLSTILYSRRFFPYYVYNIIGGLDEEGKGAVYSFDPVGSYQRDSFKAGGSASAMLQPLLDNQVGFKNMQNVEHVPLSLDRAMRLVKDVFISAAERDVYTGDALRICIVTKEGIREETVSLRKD
# Description: Inhibition of postacid activity of human constitutive 20s proteasome beta-1 subunit using Z-LLE-betaNA as substrate assessed as remaining activity incubated for 15 mins prior to substrate addition measured after 45 mins by fluorescence assay
# [7] = target: Proteasome Macropain subunit (Homo sapiens, UniProt P49721); test: Inhibition of trypsin-like activity of human constitutive 20s proteasome beta-2 subunit using Boc-LRR-AMC as substrate assessed as remaining activity incubated for 15 mins prior to substrate addition measured after 45 mins by fluorescence assay
# [8] = target: T1, Proteasome Macropain subunit MB1; test: (§1) Mixed type inhibition of chymotrypsin-like activity of human constitutive 20s proteasome beta-5 subunit using Suc-LLVY-AMC as substrate assessed as inhibition constant for dissociation of enzyme-inhibitor complex incubated for 15 mins prior to substrate addition measured after 45 mins by fluorescence assay
# [9] = Half life of the compound in RPMI culture medium in presence of 20% fetal calf serum at 37 degC by HPLC analysis; assay type: physicochemical; settings: cattle, RPMI culture medium with 20% fetal calf serum
# [10] = target: T1, Proteasome Macropain subunit MB1; remark: listed apart in the source
# Description: Inhibition of chymotrypsin-like activity of proteasome beta-5 subunit in HEK293 cells using Suc-LLVY-Glo as substrate incubated for 2 hrs prior to substrate addition measured after 10 mins by cell-based proteasome-Glo beta5 assay
# [11] = target: T1, Proteasome Macropain subunit MB1; test: as §1, with “enzyme-substrate-inhibitor” for “enzyme-inhibitor”
# [12] = target: T4, Proteasome component C5 (Homo sapiens) (UniProt P20618); test: Inhibition of postacid activity of 20s proteasome beta-1 subunit in HEK293 cells using Z-nLPnLD-Glo as substrate at 10 uM incubated for 2 hrs prior to substrate addition measured after 10 mins by cell-based proteasome-Glo beta1 assay
# T4 sequence (whole entry): T3 sequence (P20618 whole entry)
# [13] = target: T5, Proteasome Macropain subunit PRE2 (Saccharomyces cerevisiae S288c, UniProt P30656)
# T5 sequence (P30656 whole entry): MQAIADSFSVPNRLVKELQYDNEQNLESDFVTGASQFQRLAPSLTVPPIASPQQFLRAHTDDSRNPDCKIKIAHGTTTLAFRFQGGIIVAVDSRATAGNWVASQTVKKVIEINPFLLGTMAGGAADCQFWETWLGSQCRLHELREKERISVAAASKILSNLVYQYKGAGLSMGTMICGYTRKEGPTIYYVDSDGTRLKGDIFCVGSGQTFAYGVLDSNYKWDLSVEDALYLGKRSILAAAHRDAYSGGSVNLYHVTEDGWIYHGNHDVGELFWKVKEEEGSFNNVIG
# Description: Inhibition of chymotrypsin-like activity of yeast 20S proteasome beta-5 subunit using Suc-LLVY-AMC as substrate measured up to 45 mins by fluorescence assay
# [14] = target: T1, Proteasome Macropain subunit MB1; test: as §1, with “Noncompetitive” for “Mixed type”
# [15] = target: T1, Proteasome Macropain subunit MB1; test: as §1, with “Noncompetitive” for “Mixed type”, “enzyme-substrate-inhibitor” for “enzyme-inhibitor”
# [16] = target: T4, Proteasome component C5 (Homo sapiens); test: Inhibition of postacid activity of 20s proteasome beta-1 subunit in HEK293 cells using Z-nLPnLD-Glo as substrate at 20 uM incubated for 2 hrs prior to substrate addition measured after 10 mins by cell-based proteasome-Glo beta1 assay
# Sequence of Proteasome Macropain subunit (P49721 whole entry): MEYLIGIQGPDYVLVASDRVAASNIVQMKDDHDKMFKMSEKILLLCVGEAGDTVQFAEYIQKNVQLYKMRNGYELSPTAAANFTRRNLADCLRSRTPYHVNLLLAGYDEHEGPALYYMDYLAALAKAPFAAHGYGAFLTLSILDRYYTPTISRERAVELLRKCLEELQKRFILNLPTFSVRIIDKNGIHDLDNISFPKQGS
Structure (SMILES),inhibition [1],Ki [2] [nM],IC50 [3] [nM],inhibition [4],IC50 [5],IC50 [6],IC50 [7],Ki [8] [nM],half-life [9] [min],IC50 [10] [nM],Ki [11] [nM],inhibition [12] [%],IC50 [13] [µM],Ki [14] [µM],Ki [15] [µM],inhibition [16] [%]
COC(=O)CCCCCNC(=O)CCCCCNC(=O)CCCCCNC(=O)CCCCC(=O)OC,inactive,–,–,inactive,Not Active,Not Active,Not Active,–,–,–,–,–,–,–,–,–
C[C@H](NC(=O)[C@H](Cc1ccc(OCc2ccccc2)cc1)NC(=O)CCCCCNC(=O)CCCCCNC(=O)CCCCCNC(=O)OC(C)(C)C)C(=O)N[C@@H](C[C@]1(O)C(=O)Nc2ccccc21)C(=O)NCc1ccccc1,inactive,–,460,inactive,–,–,–,101,1140,252,316,–,–,–,–,–
C[C@H](NC(=O)[C@@H](N)Cc1ccc(OCc2ccccc2)cc1)C(=O)N[C@@H](C[C@]1(O)C(=O)Nc2ccccc21)C(=O)NCc1ccccc1,inactive,–,11600,inactive,–,–,Not Active,–,–,–,–,–,9.4,24.5,24.5,–
C[C@H](NC(=O)[C@H](Cc1ccc(OCc2ccccc2)cc1)NC(=O)OC(C)(C)C)C(=O)N[C@@H](C[C@]1(O)C(=O)Nc2ccccc21)C(=O)NCc1ccccc1,inactive,–,3190,inactive,–,–,–,2430,3000,7970,5030,–,1.5,–,–,–
C[C@H](NC(=O)[C@H](Cc1ccc(OCc2ccccc2)cc1)NC(=O)CCCCCNC(=O)CCCCCNC(=O)CCCCCNC(=O)CCCCCNC(=O)OC(C)(C)C)C(=O)N[C@@H](C[C@]1(O)C(=O)Nc2ccccc21)C(=O)NCc1ccccc1,inactive,–,707,inactive,–,–,–,67,–,–,200,–,–,–,–,–
COC(=O)CCCCCNC(=O)CCCCCNC(=O)CCCCCNC(=O)CCCCCNC(=O)CCCCCNC(=O)CCCCCNC(=O)OC(C)(C)C,inactive,–,–,inactive,Not Active,Not Active,Not Active,–,–,–,–,–,–,–,–,–
C[C@H](NC(=O)[C@H](Cc1ccc(OCc2ccccc2)cc1)NC(=O)CCCCCNC(=O)CCCCCNC(=O)CCCCCNC(=O)CCCCCNC(=O)CCCCC(=O)N[C@@H](Cc1ccc(OCc2ccccc2)cc1)C(=O)N[C@@H](C)C(=O)N[C@@H](C[C@]1(O)C(=O)Nc2ccccc21)C(=O)NCc1ccccc1)C(=O)N[C@@H](C[C@]1(O)C(=O)Nc2ccccc21)C(=O)NCc1ccccc1,inactive,10.8,25.9,inactive,–,–,–,–,–,756,–,37,–,–,–,–

# Other lines, results leading:
inhibition [1],Ki [2] [nM],IC50 [3] [nM],inhibition [4],IC50 [5],IC50 [6],IC50 [7],Ki [8] [nM],half-life [9] [min],IC50 [10] [nM],Ki [11] [nM],inhibition [12] [%],IC50 [13] [µM],Ki [14] [µM],Ki [15] [µM],inhibition [16] [%],Structure (SMILES)
inactive,6,20,inactive,–,–,–,–,–,–,–,–,–,–,–,–,C[C@H](NC(=O)[C@H](Cc1ccc(OCc2ccccc2)cc1)NC(=O)CCCCCNC(=O)CCCCCNC(=O)CCCCCNC(=O)CCCCCNC(=O)CCCCC(=O)NCCCCCC(=O)NCCCCCC(=O)NCCCCCC(=O)NCCCCCC(=O)N[C@@H](Cc1ccc(OCc2ccccc2)cc1)C(=O)N[C@@H](C)C(=O)N[C@@H](C[C@]1(O)C(=O)Nc2ccccc21)C(=O)NCc1ccccc1)C(=O)N[C@@H](C[C@]1(O)C(=O)Nc2ccccc21)C(=O)NCc1ccccc1
inactive,10.6,19.1,inactive,–,–,–,–,–,476,–,30,–,–,–,–,C[C@H](NC(=O)[C@H](Cc1ccc(OCc2ccccc2)cc1)NC(=O)CCCCCNC(=O)CCCCCNC(=O)CCCCCNC(=O)CCCCC(=O)NCCCCCC(=O)NCCCCCC(=O)NCCCCCC(=O)N[C@@H](Cc1ccc(OCc2ccccc2)cc1)C(=O)N[C@@H](C)C(=O)N[C@@H](C[C@]1(O)C(=O)Nc2ccccc21)C(=O)NCc1ccccc1)C(=O)N[C@@H](C[C@]1(O)C(=O)Nc2ccccc21)C(=O)NCc1ccccc1
inactive,10.3,25.8,inactive,–,–,–,–,3000,541,–,–,–,–,–,40,C[C@H](NC(=O)[C@H](Cc1ccc(OCc2ccccc2)cc1)NC(=O)CCCCCNC(=O)CCCCCNC(=O)CCCCCNC(=O)CCCCC(=O)N[C@@H](Cc1ccc(OCc2ccccc2)cc1)C(=O)N[C@@H](C)C(=O)N[C@@H](C[C@]1(O)C(=O)Nc2ccccc21)C(=O)NCc1ccccc1)C(=O)N[C@@H](C[C@]1(O)C(=O)Nc2ccccc21)C(=O)NCc1ccccc1
inactive,11.4,22.7,inactive,–,–,–,–,–,472,–,25,–,–,–,–,C[C@H](NC(=O)[C@H](Cc1ccc(OCc2ccccc2)cc1)NC(=O)CCCCCNC(=O)CCCCCNC(=O)CCCCCNC(=O)CCCCCNC(=O)CCCCCNC(=O)CCCCC(=O)N[C@@H](Cc1ccc(OCc2ccccc2)cc1)C(=O)N[C@@H](C)C(=O)N[C@@H](C[C@]1(O)C(=O)Nc2ccccc21)C(=O)NCc1ccccc1)C(=O)N[C@@H](C[C@]1(O)C(=O)Nc2ccccc21)C(=O)NCc1ccccc1
–,2.3,5.4,–,–,–,–,–,–,–,–,–,–,–,–,–,C/C=C\NC(=O)[C@H]1NC(=O)[C@H](CC(N)=O)CC(=O)[C@@H](NC(=O)C(=O)[C@@H](C)CC)Cc2ccc(O)c(c2)-c2cccc3c2NC(=O)[C@@]3(O)[C@@H]1O
